The results in this text go back to article PMC5391968, “Comparison of cell-based assays for the identification and evaluation of competitive CXCR4 inhibitors” (PLoS ONE, 2017).

Assay [1] deals with T1, CXCR4 (Homo sapiens, UniProt P61073). The assay is described as follows: CXCL12^AF647 binding assay on Jurkat cells. Conditions: Jurkat cells, 2.9 nM CXCL12^AF647, mean ± SEM; read-out: IC50 CXCL12-CXCR4 binding interaction. How it is done:
In brief, Jurkat cells were washed twice in assay buffer [Hank’s Balanced Salt Solution (HBSS; Thermo Fisher Scientific), 20 mM HEPES buffer (Thermo Fisher Scientific), 0.2% bovine serum albumin (Sigma-Aldrich), pH 7.4]. […] Afterwards, cells were washed twice in assay buffer and subsequently fixed in 1% paraformaldehyde in Dulbecco’s phosphate buffered saline (DPBS). Samples were analyzed with the FACSArray flow cytometer (Becton Dickinson, NJ, USA). Data were further analyzed with the FlowJo Software (Ashland, Oregon, USA).

Assay [2] concerns the target T1, CXCR4. The assay can be described thus: Calcium mobilization assay (FLIPR Tetra) in U87.CD4.CXCR4 cells. Type of assay: cell-based. The following applies: for IC50: 6.25 nM CXCL12, mean ± SEM, read-out: IC50 Calcium signaling (CXCL12-induced); for agonist activity on intracellular calcium flux: in absence of CXCL12. How it is done: U87.CD4.CXCR4 cells were seeded at 2x10^4 cells per well in gelatin-coated black-walled 96-well plates [0.1% gelatin in DPBS, incubated at RT for two hours and washed once with DPBS] and incubated at 37°C and 5% CO2 overnight. […] Fluo-2 AM loaded cells were washed with assay buffer before being incubated in the FLIPR Tetra system at 37°C for five minutes. At the start of the kinetic measurement, compounds were added to the cell plate by the internal robotic system followed by an incubation period of 10 minutes during which changes in the intracellular calcium level were continuously measured by the FLIPR Tetra. […] Each condition was measured in triplicate and repeated several times as further indicated (see Results).
For orientation: Calcium flux is commonly read through the fluorescence of an indicator in the cells.

The subject of assay [3] is CXCR4-positive Jurkat cells. The assay is described as follows: cells. The assay is classed as cell-based, human. As to the method:
Jurkat cells were washed twice in assay buffer (see above), dispensed into a 96-well plate (5x10^5 cells per well) containing serial dilutions of compounds (in assay buffer) and incubated at RT in the dark for 10 minutes. […] Suspensions of 1.87x10^4 cells were transferred to the chemotaxis insert plate. […] After removal of the insert plate, migrated cells were centrifuged and resuspended in DPBS containing flow cytometry cell counting beads ([…] Fluorescent Particles; Gentaur, London, UK). Both migrated cells and particles were counted by flow cytometry (FACSCanto II; Becton Dickinson). Each compound concentration was tested in triplicate. Data were analyzed using the FlowJo software and the total number of migrated cells was calculated, according to the counted and total number of beads present in the sample.

Assay [4] deals with HIV-1 NL4-3 (X4). The assay can be described thus: microbe, parasite or virus in culture. Type of assay: cell-based. As to the method:
The anti-HIV replication assays in MT-4 cells and PHA-stimulated PBMCs have been described previously. The HIV-1 T-tropic molecular clone NL4-3 (X4) was obtained from the National Institute of Allergy and Infectious Disease (NIAID) AIDS reagent program (Bethesda, MD, USA). Briefly, 5x10^4 MT-4 cells (in cell culture medium) were treated with different concentrations of compound at 37°C for 30 minutes. Afterwards, a 50% tissue culture infectious dose of the NL4-3 viral stock was added to the cell-compound mixtures. Four days post infection, the cytopathic effect was evaluated microscopically and cell viability was assessed with the MTS method, as described above.
In the antiviral assays, each condition was tested in duplicate.

The subject of assay [5] is HIV-1 NL4-3 (X4). The assay can be described thus: microbe, parasite or virus in culture. The assay is classed as cell-based. How it is done:
PHA-stimulated PBMCs at 5x10^5 cells per sample, pre-incubated with test compounds dissolved in cell culture medium containing IL-2 (2 ng/ml; […] After three days, fresh culture medium with IL-2 was added. Ten days post infection cell supernatant was collected for HIV-1 p24 core antigen enzyme-linked immunosorbent assay (ELISA; Perkin Elmer, Boston, MA, USA) according to the manufacturer’s protocol. In the antiviral assays, each condition was tested in duplicate.
This is another data set of the same source.

Assay [6] addresses T1, CXCR4. The assay can be described thus: CXCR4 internalization assay in SUP-T1 cells. Also noted: CXCR4 receptors endogenously expressed on SUP-T1 cells; endogenous in cells; host or cells: SUP-T1 (ATCC). The assay is classed as cell-based. Conditions: for induction of CXCR4 internalization (agonistic effect): in absence of CXCL12, data not shown; for IC50: SUP-T1 cells, 6.25 nM CXCL12, 37°C 30 minutes, mean ± SEM. As to the method: T-lymphoblastic SUP-T1 cells were washed twice in DPBS containing 2% FBS. Afterwards, cells were first incubated with the PE-labeled rat anti-human CXCR4 mAb (clone 1D9; 2 μg/ml in DPBS/2% FBS; BD Pharmingen) on ice for 45 minutes. […] SUP-T1 cells were subsequently washed once with ice cold DPBS and twice with ice cold assay buffer (see above) before being treated with test compound on ice for 15 minutes. […] Samples were immediately analyzed with the FACSCalibur flow cytometer (Becton Dickinson) whereby the measured fluorescence corresponds to the amount of […] CXCR4 receptors. Data were further analyzed with the FlowJo software.

In another assay the target is T2, CXCR7 (Homo sapiens, UniProt P25106).
T2 construct: expressed in transfected cells; host or cells: U87.CD4 cells transfected with pTEJ-8 plasmid carrying human CXCR7 cDNA
T2 sequence (P25106 whole entry): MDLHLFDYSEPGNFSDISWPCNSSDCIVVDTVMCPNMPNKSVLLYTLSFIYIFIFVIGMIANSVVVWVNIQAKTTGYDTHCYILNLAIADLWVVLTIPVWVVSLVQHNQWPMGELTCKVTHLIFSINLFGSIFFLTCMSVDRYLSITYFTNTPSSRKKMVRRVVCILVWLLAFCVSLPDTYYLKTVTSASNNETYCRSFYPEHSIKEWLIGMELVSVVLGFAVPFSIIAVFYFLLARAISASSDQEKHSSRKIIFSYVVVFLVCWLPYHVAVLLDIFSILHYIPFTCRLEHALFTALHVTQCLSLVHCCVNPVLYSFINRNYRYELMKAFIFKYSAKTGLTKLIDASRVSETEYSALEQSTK
The assay is described as follows: CXCL12 binding on CXCR7-transfected U87 cells (U87.CD4.CXCR7). Conditions: data not shown.

The mark [7] stands for this setting: Jurkat cells, 6.25 nM CXCL12, two hours, mean ± SEM, read-out: IC50 Chemotaxis.
Setting [8] is: MT-4 cells, four days post infection, MTS, mean ± SEM, read-out: IC50 HIV-1 (X4) NL4-3 replication, MT-4 cells.
Setting [9] is: PHA-stimulated PBMCs, ten days post infection, p24 Ag ELISA, mean ± SEM, read-out: IC50 HIV-1 (X4) NL4-3 replication, PHA-stimulated PBMCs.
The mark [10] stands for this setting: Homo sapiens, Jurkat, 2 h, read-out: IC50 Chemotaxis.
Where [11] appears, read: Human immunodeficiency virus 1, NL43, MT4, 96 h, MT-4 cells, four days post infection, MTS, mean ± SEM, read-out: IC50 HIV-1 (X4) NL4-3 replication, MT-4 cells.
The mark [12] stands for this setting: Human immunodeficiency virus 1, NL43, PBMC, 240 h, PHA-stimulated PBMCs, ten days post infection, p24 Ag ELISA, mean ± SEM, read-out: IC50 HIV-1 (X4) NL4-3 replication, PHA-stimulated PBMCs.

Like-named read-outs stand apart in the source and are kept apart here. Where a SMILES comes first, the peptide text is derived from it. Bridges are numbered along the chain shown (N, C = ends). Where no end group is shown, it is not given here. [ ]: non-standard residue; d: D form. 2Nal = N[C@@H](Cc1ccc2ccccc2c1)C(=O)O; Cit = NC(=O)NCCC[C@H](N)C(=O)O

T1 sequence (P61073 whole entry): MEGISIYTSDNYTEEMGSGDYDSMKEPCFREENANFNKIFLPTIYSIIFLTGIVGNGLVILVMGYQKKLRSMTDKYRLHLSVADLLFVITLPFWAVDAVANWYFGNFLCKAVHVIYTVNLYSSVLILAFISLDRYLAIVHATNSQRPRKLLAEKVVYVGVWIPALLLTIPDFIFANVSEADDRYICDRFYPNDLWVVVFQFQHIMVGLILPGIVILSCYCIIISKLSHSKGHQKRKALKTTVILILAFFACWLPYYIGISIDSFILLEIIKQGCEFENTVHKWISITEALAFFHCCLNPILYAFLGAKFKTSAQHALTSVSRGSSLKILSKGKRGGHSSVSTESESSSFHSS

In the case of `c1ccc(CNCc2ccc(CN3CCCNCCNCCCNCC3)cc2)nc1` [AMD3465], the IC50 at CXCR4 [1] was determined as 2.1 ± 0.24 nM; at CXCR4 [2] (U87.CD4.CXCR4 cells) it was 53.4 ± 24.3 nM; in assay [3] (setting [7]), 116 ± 15.2 nM; with HIV-1 NL4-3 (X4) [4] (setting [8]), 21.8 ± 10.1 nM; with HIV-1 NL4-3 (X4) [5] (setting [9]) it was 27.2 ± 8.7 nM; at CXCR4 [6], 67.3 ± 11.3 nM. At CXCR4 [6] (50 μM), the “induction of CXCR4 internalization (agonistic effect)” value (from here on “induction of CXCR4 internalization”) was “absence of an agonistic effect”.
Regarding KGVSLSYRKRYSLSVGK-NH2 [CTCE-9908], the results for the “agonist activity on intracellular calcium flux” value at CXCR4 [2] (20 μM) and on CXCR4 [2] (100 μM) were “this activity was lost” and “very weak agonist activity”, respectively. Besides, the “induction of CXCR4 internalization” value on CXCR4 [6] (100 μM) is “absence of an agonistic effect”.
Take `N=C(N)NCCC[C@H](NC(=O)[C@@H]1CSSC[C@H](NC(=O)[C@H](Cc2ccc3ccccc3c2)NC(=O)[C@H](CCCNC(=N)N)NC(=O)[C@@H](N)CCCNC(=N)N)C(=O)N[C@@H](Cc2ccc(O)cc2)C(=O)N[C@@H](CCCNC(N)=O)C(=O)N[C@@H](CCCCN)C(=O)N[C@H](CCCNC(N)=O)C(=O)N2CCC[C@H]2C(=O)N[C@@H](Cc2ccc(O)cc2)C(=O)N[C@@H](CCCNC(=N)N)C(=O)N[C@@H](CCCNC(N)=O)C(=O)N1)C(N)=O` [TC14012]: at CXCR7, the “inhibition of CXCL12 binding on CXCR7” value is listed as “reduced CXCL12 binding on CXCR7 in the lower micromolar range”. In addition, the inhibition of migration entry in assay [3] (pretreated at concentrations as low as 200 nM) is given as “total inhibition of migration”. Moreover, the results for the IC50 in the assay on HIV-1 NL4-3 (X4) [4] (NL4-3 (X4)) and in the assay with HIV-1 NL4-3 (X4) [5] (NL4-3 (X4)) were 7.2 ± 2.3 nM and 9.3 ± 4 nM, respectively. For the same compound, on CXCR4 [6] (50 μM), the “induction of CXCR4 internalization” value is on record as “absence of an agonistic effect”.
On to `CN(C)CCN(CCN(C)C)CCN(C)C` [Me6TREN], for which the half-maximal inhibitory concentration (IC50) on CXCR4 [1] was 51900 nM; at CXCR4 [2] (U87.CD4.CXCR4 cells), > 100000 nM; in assay [3] (setting [7]) it was > 100000 nM; with HIV-1 NL4-3 (X4) [4] (setting [8]), > 100000 nM; in the assay with HIV-1 NL4-3 (X4) [5] (setting [9]) it was > 100000 nM; on CXCR4 [6], > 100000 nM. Moreover, the “induction of CXCR4 internalization” value on CXCR4 [6] (100 μM) is recorded as “absence of an agonistic effect”.
As to `NCCCCN(Cc1nc2ccccc2[nH]1)[C@H]1CCCc2cccnc21` [AMD11070], the “inhibition of CXCL12 binding on CXCR7” value on CXCR7 is reported as “reduced CXCL12 binding on CXCR7 in the lower micromolar range”. Further, the figures for the IC50 (in assay [3] (setting [10]); in the assay on HIV-1 NL4-3 (X4) [4] (setting [11]); in the assay on HIV-1 NL4-3 (X4) [5] (setting [12])) were 74.9 ± 17.7 nM, 11.9 ± 4.6 nM and 26.4 ± 6.1 nM, respectively. Moreover, the “induction of CXCR4 internalization” value on CXCR4 [6] (50 μM) is recorded as “absence of an agonistic effect”.
For “CXCL12: Recombinant human CXCL12, endogenous chemokine ligand of CXCR4”, the EC90 with CXCR4 [2] (U87.CD4.CXCR4 cells, CXCL12 alone, read-out: EC90 increase of the calcium concentration) was 10.9 nM.
Consider `N=C(N)NCCC[C@H](NC(=O)[C@@H]1CSSC[C@H](NC(=O)[C@H](Cc2c[nH]c3ccccc23)NC(=O)[C@H](CCCNC(=N)N)NC(=O)[C@@H](N)CCCNC(=N)N)C(=O)N[C@@H](Cc2ccc(O)cc2)C(=O)N[C@@H](CCCNC(=N)N)C(=O)N[C@@H](CCCCN)C(=O)N[C@H]2CSSC[C@H](NC(=O)[C@H](Cc3ccc(O)cc3)NC(=O)CNC(=O)[C@H](CCCCN)NC(=O)[C@H](Cc3ccc(O)cc3)NC2=O)C(=O)N[C@@H](Cc2ccc(O)cc2)C(=O)N[C@@H](CCCNC(=N)N)C(=O)N[C@@H](CCCCN)C(=O)N1)C(N)=O` [T22, (Tyr^5.12,Lys^7)-Polyphemusin II] (H-RRWCYRKCYKGYCYRKCR-NH2; disulfide 4-17, 8-13 (inferred); N-terminus and C-terminus assumed), for which the “induction of CXCR4 internalization” value at CXCR4 [6] (50 μM) is “absence of an agonistic effect”.
In the case of `N=C(N)NCCC[C@H](NC(=O)[C@@H]1CSSC[C@H](NC(=O)[C@H](Cc2ccc3ccccc3c2)NC(=O)[C@H](CCCNC(=N)N)NC(=O)[C@@H](N)CCCNC(=N)N)C(=O)N[C@@H](Cc2ccc(O)cc2)C(=O)N[C@@H](CCCNC(=N)N)C(=O)N[C@@H](CCCCN)C(=O)N[C@H](CCCCN)C(=O)N2CCC[C@H]2C(=O)N[C@@H](Cc2ccc(O)cc2)C(=O)N[C@@H](CCCNC(=N)N)C(=O)N[C@@H](CCCNC(N)=O)C(=O)N1)C(=O)O` [T140] (H-RR[2Nal]CYRK[dK]PYR[Cit]CR-OH; disulfide 4-13 (inferred); N-terminus and C-terminus assumed), the IC50 was 73.7 ± 26 nM in assay [3], 13.5 ± 7.1 nM in the assay with HIV-1 NL4-3 (X4) [4] (NL4-3 (X4)) and 10.4 ± 4.8 nM in the assay on HIV-1 NL4-3 (X4) [5] (NL4-3 (X4)). Further, the “induction of CXCR4 internalization” value at CXCR4 [6] (50 μM) is listed as “absence of an agonistic effect”.
As to `CC1(C)CN2C(CSC(=NC3CCCCC3)NC3CCCCC3)=CSC2=N1` [IT1t], the IC50 stood at 79.1 ± 9.6 nM in assay [3] (setting [7]), 14.2 ± 5.3 nM in the assay on HIV-1 NL4-3 (X4) [4] (setting [8]) and 19 ± 2.3 nM in the assay with HIV-1 NL4-3 (X4) [5] (setting [9]).
Turning to `c1cc(CN2CCCNCCNCCCNCC2)ccc1CN1CCCNCCNCCCNCC1` [AMD3100], the IC50 was determined as 1430 nM in assay [3] (setting [10]), 11.8 ± 3.4 nM in the assay with HIV-1 NL4-3 (X4) [4] (setting [11]) and 14.9 ± 3.2 nM in the assay with HIV-1 NL4-3 (X4) [5] (setting [12]). Also, the “induction of CXCR4 internalization” value at CXCR4 [6] (50 μM) was “absence of an agonistic effect”.

For orientation: IC50 means the concentration that gives 50% inhibition.
